Data set [1] in a line: Turbidity, derived count rate of scattered light. Format: physicochemical. The note with it: for Count Rate: derived count rate of scattered light (turbidity); for Log10 Count Rate: turbidity, derived count rate of scattered light, data of Figure 2D.
Data set [2] can be described thus: Aggregate analysis by widefield fluorescence microscopy. Format: physicochemical. The procedure, abridged: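 Brightfield images were acquired alongside ThT fluorescence so that aggregates lacking ThT signal were also captured. Preformed peptide fibrils had been incubated 1 d at RT in PBS before dilution to 0.1 mg/mL in 50 µM ThT, and particles above 10 µm^2 were then counted and sized automatically.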

The mark [3] stands for this setting: Fig S8 panels A, C, 3 fields of 1330 µm x 1330 µm.
The mark [4] stands for this setting: Fig S8 panels B, D, average aggregate area, 3 fields of 1330 µm x 1330 µm.
[5] abbreviates: Fig S8 panels B, D, median aggregate area, 3 fields of 1330 µm x 1330 µm.
Where [6] appears, read: Fig S8 panels B, D, 3 fields of 1330 µm x 1330 µm.
Setting [7] is: Fig S8 panels B, D, widefield fluorescence microscopy, 3 fields of 1330 µm x 1330 µm.

On to CKIKIQINMWQ, for which, in data set [1], the “Count Rate” value was determined as 1881 and the “Log10 Count Rate” value is reported as 3.274.

Turning to CKIKQII [MG4a], in data set [2] (Fig S8 panels A, C), the “Avg Area in 3 *(1330 µm *1330 µm)” value was found to be 110.6, the “Log 10 Number of aggregates in 3 * (1330 µm *1330 µm)” value (“Log 10 Number of aggregates in 3 *” for short) turned out to be 1.8789, the “Median Area in 3 * (1330 µm *1330 µm)” value is 36.476 and the “log Avg Area in 3 * ( (1330 µm *1330 µm))” value (“log Avg Area in 3 *” for short) was determined as 2.044. Also, in data set [2] (Fig S8 panels A, C), the “log Median Area in 3 * ( (1330 µm *1330 µm))” value (from here on “log Median Area in 3 *”) amounted to 1.562 and the “log Total Area of all particles in 3 * (1330 µm *1330 µm)” value (“log Total Area of all particles in 3 *” for short) is reported as 3.923. The “Number of aggregates in 3 * (1330 µm *1330 µm)” value in data set [2] (setting [3]) worked out at 75.67. Besides, the “Avg Area in 3 *(1330 µm *1330 µm)” value in data set [2] (setting [4]) is 110.6. The “Median Area in 3 * (1330 µm *1330 µm)” value in data set [2] (setting [5]) amounted to 36.476. Moreover, the “Total Area of all particles in 3 * (1330 µm *1330 µm)” value in data set [2] (setting [6]) was determined as 8372.136. The “Number of aggregates in 3 * (1330 µm *1330 µm)” value in data set [2] (setting [7]) is 75.67.

As for CKIKQIINMWQ [MG5a / CK17], in data set [2] (Fig S8 panels A, C), the “Avg Area in 3 *(1330 µm *1330 µm)” value amounted to 183.3, the “Log 10 Number of aggregates in 3 *” value came out at 2.289, the “Median Area in 3 * (1330 µm *1330 µm)” value was determined as 91.75 and the “log Avg Area in 3 *” value is reported as 2.263. Also, in data set [2] (Fig S8 panels A, C), the “log Median Area in 3 *” value amounted to 1.963 and the “log Total Area of all particles in 3 *” value worked out at 4.553. Also, the “Number of aggregates in 3 * (1330 µm *1330 µm)” value in data set [2] (setting [3]) is 194.7. For the same substance, the “Avg Area in 3 *(1330 µm *1330 µm)” value in data set [2] (setting [4]) is 183.3. In data set [2] (setting [5]), the “Median Area in 3 * (1330 µm *1330 µm)” value was 91.75. Further, the “Total Area of all particles in 3 * (1330 µm *1330 µm)” value in data set [2] (setting [6]) came out at 35686.92633. The “Number of aggregates in 3 * (1330 µm *1330 µm)” value in data set [2] (setting [7]) amounted to 194.7.

As to CKWKWQW [KB4], in data set [2] (Fig S8 panels A, C), the “Avg Area in 3 *(1330 µm *1330 µm)” value is 95.93, the “Log 10 Number of aggregates in 3 *” value was 1.94, the “Median Area in 3 * (1330 µm *1330 µm)” value came to 29.43 and the “log Avg Area in 3 *” value is recorded as 1.982. Further, in data set [2] (Fig S8 panels A, C), the “log Median Area in 3 *” value is reported as 1.469 and the “log Total Area of all particles in 3 *” value is 3.921. For the same substance, in data set [2] (setting [3]), the “Number of aggregates in 3 * (1330 µm *1330 µm)” value came to 87. In data set [2] (setting [4]), the “Avg Area in 3 *(1330 µm *1330 µm)” value is on record as 95.93. Further, in data set [2] (setting [5]), the “Median Area in 3 * (1330 µm *1330 µm)” value stood at 29.43. Besides, in data set [2] (setting [6]), the “Total Area of all particles in 3 * (1330 µm *1330 µm)” value was determined as 8346. For the same substance, the “Number of aggregates in 3 * (1330 µm *1330 µm)” value in data set [2] (setting [7]) was determined as 87.

For CQFQFQF [QBL4], in data set [2] (Fig S8 panels A, C), the “Avg Area in 3 *(1330 µm *1330 µm)” value came to 73.07, the “Log 10 Number of aggregates in 3 *” value is recorded as 1.6596, the “Median Area in 3 * (1330 µm *1330 µm)” value was found to be 15.07 and the “log Avg Area in 3 *” value stood at 1.864. Further, in data set [2] (Fig S8 panels A, C), the “log Median Area in 3 *” value stood at 1.178 and the “log Total Area of all particles in 3 *” value amounted to 3.523. In addition, the “Number of aggregates in 3 * (1330 µm *1330 µm)” value in data set [2] (setting [3]) is 45.67. In addition, the “Avg Area in 3 *(1330 µm *1330 µm)” value in data set [2] (setting [4]) came out at 73.07. The “Median Area in 3 * (1330 µm *1330 µm)” value in data set [2] (setting [5]) stood at 15.07. For the same substance, the “Total Area of all particles in 3 * (1330 µm *1330 µm)” value in data set [2] (setting [6]) stood at 3337. Further, the “Number of aggregates in 3 * (1330 µm *1330 µm)” value in data set [2] (setting [7]) is recorded as 45.67.

With CSISIQI [TM141], in data set [2] (Fig S8 panels A, C), the “Avg Area in 3 *(1330 µm *1330 µm)” value was determined as 112.5, the “Log 10 Number of aggregates in 3 *” value stood at 2.091, the “Median Area in 3 * (1330 µm *1330 µm)” value is given as 18.872 and the “log Avg Area in 3 *” value was 2.051. Further, in data set [2] (Fig S8 panels A, C), the “log Median Area in 3 *” value is on record as 1.276 and the “log Total Area of all particles in 3 *” value came to 4.142. Moreover, in data set [2] (setting [3]), the “Number of aggregates in 3 * (1330 µm *1330 µm)” value is listed as 123.3. The “Avg Area in 3 *(1330 µm *1330 µm)” value in data set [2] (setting [4]) worked out at 112.5. The “Median Area in 3 * (1330 µm *1330 µm)” value in data set [2] (setting [5]) was 18.872. Further, in data set [2] (setting [6]), the “Total Area of all particles in 3 * (1330 µm *1330 µm)” value was 13871.26567. In data set [2] (setting [7]), the “Number of aggregates in 3 * (1330 µm *1330 µm)” value was found to be 123.3.

Consider KFKFQFNMW, for which, in data set [1], the “Count Rate” value is on record as 610.2 and the “Log10 Count Rate” value came out at 2.785.

On to KLKQLL, for which, in data set [1], the “Count Rate” value is reported as 319.9 and the “Log10 Count Rate” value was 2.505.

For RGDKIKIQI, in data set [1], the “Count Rate” value was determined as 298.1 and the “Log10 Count Rate” value came out at 2.474.

Source of the values: PMC10447463, “Data-mining unveils structure–property–activity correlation of viral infectivity enhancing self-assembling peptides” (Nature Communications, 2023).
